Source: patent US10858335B2 (Rigel Pharmaceuticals, Inc., priority 2014, dated 2020)

test system: GDF8 signaling (p-SMAD-3 (Ser423/425)); experiment: AlphaScreen SureFire SMAD3 (p-Ser423/425) assay, GDF8-stimulated cells (GDF pSMAD); type: cell-based; conditions: MPC11; GDF8-stimulated; p-SMAD3 AlphaScreen; read-out: GDF pSMAD (MPC11) (inhibition of GDF8 signaling)

In the case of `Cc1cc(-c2ncccc2-c2ccn3ncc(C(=O)NC4CC5CCC(C4)N5C)c3c2)ccc1F` (stereo not drawn) [compound 716, endo-5-(2-(4-Fluoro-3-methylphenyl)pyridin-3-yl)-N-(8-methyl-8-azabicyclo[3.2.1]octan-3-yl)pyrazolo[1,5-a]pyridine-3-carboxamide], the IC50 is reported as 5.03 µM.

same assay, conditions: Mus musculus, MPC-11, GDF8-stimulated pSMAD3, MPC11; tested as the salt form given; read-out: GDF pSMAD (MPC11) (μM), inhibition of GDF8 signaling

In order of falling IC50:
1. Cc1cc(F)c(F)cc1-c1ncccc1-c1ccc2ncnc(N)c2c1 [compound 987, 6-(2-(4,5-difluoro-2-methylphenyl)pyridin-3-yl)quinazolin-4-amine]  8 µM
2. Nc1ncnc2ccc(-c3cc(F)cnc3-c3cc(Cl)ccc3F)cc12 [compound 999, 6-(2-(5-chloro-2-fluorophenyl)-5-fluoropyridin-3-yl)quinazolin-4-amine]  1.2 µM
3. Cc1cc(-c2ncccc2-c2cc(C)c3ncnc(N)c3c2)ccc1F [compound 986, 6-(2-(4-fluoro-3-methylphenyl)pyridin-3-yl)-8-methylquinazolin-4-amine]  0.956 µM
4. Cc1ccc(Cl)c(-c2ncccc2-c2ccc3ncnc(N)c3c2)c1 [compound 984, 6-(2-(2-chloro-5-methylphenyl)pyridin-3-yl)quinazolin-4-amine]  0.45 µM

same assay, conditions: Mus musculus, MPC-11, MPC11; GDF8-stimulated; p-SMAD3 AlphaScreen; read-out: GDF pSMAD (MPC11) (inhibition of GDF8 signaling)

In order of rising IC50:
1. Fc1ccc(Cl)cc1-c1ncccc1-c1ccn2nccc2c1 [compound 761, 5-(2-(5-Chloro-2-fluorophenyl)pyridin-3-yl)pyrazolo[1,5-a]pyridine]  0.131 µM
2. Nc1ncnc2ccc(-c3cccnc3-c3cc(Cl)c(F)cc3F)cc12 [compound 450, 6-(2-(5-Chloro-2,4-difluorophenyl)pyridin-3-yl)quinazolin-4-amine]  0.136 µM
3. COc1ncnc2ccc(-c3cccnc3-c3cccc(C4CC4)c3)cc12 [compound 377, 6-(2-(3-Cyclopropylphenyl)pyridin-3-yl)-4-methoxyquinazoline]  0.172 µM
4. Cc1cc(O)cc(-c2ncccc2-c2ccc3ncnc(N)c3c2)c1 [compound 495, 3-(3-(4-Aminoquinazolin-6-yl)pyridin-2-yl)-5-methylphenol]  0.247 µM
5. Cc1cc(-c2ncc(NCc3ccncc3)cc2-c2ccc3ncsc3c2)ccc1F [compound 509, 5-(Benzo[d]thiazol-6-yl)-6-(4-fluoro-3-methylphenyl)-N-(pyridin-4-ylmethyl)pyridin-3-amine]  0.265 µM
6. O=C(NCCCN1CCCC1=O)c1cnc2ccc(-c3cccnc3-c3cc(Cl)ccc3F)cn12 [compound 729, 6-(2-(5-Chloro-2-fluorophenyl)pyridin-3-yl)-N-(3-(2-oxopyrrolidin-1-yl)propyl)imidazo[1,2-a]pyridine-3-carboxamide]  0.286 µM
7. Fc1ccc(-c2ncccc2-c2ccc3nc[nH]c3c2)cc1Cl [compound 782, 6-(2-(3-Chloro-4-fluorophenyl)pyridin-3-yl)-1H-benzo[d]imidazole]  0.332 µM
8. Cc1cc(-c2ncccc2-c2ccc3nc[nH]c3c2)ccc1F [Compound 177, 6-(2-(4-Fluoro-3-methylphenyl)pyridin-3-yl)-1H-benzo[d]imidazole]  0.363 µM
9. Cc1cc(-c2ncccc2-c2ccc3ncc(CO)n3c2)ccc1F [compound 565, (6-(2-(4-Fluoro-3-methylphenyl)pyridin-3-yl)imidazo[1,2-a]pyridin-3-yl)methanol]  0.406 µM
10. Cc1cc(-c2ncccc2-c2ccc3ncc(C#N)n3n2)ccc1F [compound 947, 6-(2-(4-Fluoro-3-methylphenyl)pyridin-3-yl)imidazo[1,2-b]pyridazine-3-carbonitrile]  0.429 µM
11. Cc1cc(-c2ncccc2-c2ccc3ncc(C(=O)Nc4cccc(C(N)=O)c4)n3c2)ccc1F [compound 619, N-(3-Carbamoylphenyl)-6-(2-(4-fluoro-3-methylphenyl)pyridin-3-yl)imidazo[1,2-a]pyridine-3-carboxamide]  0.544 µM
12. Cc1cc(-c2ncc(NCc3ccc(O)c(OC(F)(F)F)c3)cc2-c2ccc3ncsc3c2)ccc1F [compound 371, 4-(((5-(Benzo[d]thiazol-6-yl)-6-(4-fluoro-3-methylphenyl)pyridin-3-yl)amino)methyl)-2-(trifluoromethoxy)phenol]  0.737 µM
13. Cc1cc(-c2ncccc2-c2ccc3cn[nH]c3c2)ccc1F [Compound 99, 6-(2-(4-Fluoro-3-methylphenyl)pyridin-3-yl)-1H-indazole]  0.894 µM
14. Cc1cc(-c2ncccc2-c2ccc3ncnc(NC4CC4)c3c2)ccc1F [compound 404, N-Cyclopropyl-6-(2-(4-fluoro-3-methylphenyl)pyridin-3-yl)quinazolin-4-amine]  1.03 µM
15. Cc1cc(-c2ncccc2-c2ccc3ncnc(Oc4cccc(N5CCOCC5)c4)c3c2)ccc1F [compound 444, 4-(3-((6-(2-(4-Fluoro-3-methylphenyl)pyridin-3-yl)quinazolin-4-yl)oxy)phenyl)morpholine]  1.08 µM
16. Cc1cccc(-c2cccnc2-c2ccc3[nH]ncc3c2)n1 [compound 517, 5-(6-Methyl-[2,3′-bipyridin]-2′-yl)-1H-indazole]  1.17 µM
17. Cc1cc(-c2ncccc2-c2ccc3ncc(C(=O)NCC4CCN(C)CC4)n3c2)ccc1F [compound 651, 6-(2-(4-Fluoro-3-methylphenyl)pyridin-3-yl)-N-((1-methylpiperidin-4-yl)methyl)imidazo[1,2-a]pyridine-3-carboxamide]  1.18 µM
18. Clc1ccc(Cl)c(-c2ncccc2-c2ccn3ncnc3c2)c1 [compound 873, 7-(2-(2,5-Dichlorophenyl)pyridin-3-yl)-[1,2,4]triazolo[1,5-a]pyridine]  1.19 µM
19. CC(=O)c1cnc2ccc(-c3cccnc3-c3cccc(C(F)(F)F)c3)cn12 [compound 589, 1-(6-(2-(3-(Trifluoromethyl)phenyl)pyridin-3-yl)imidazo[1,2-a]pyridin-3-yl)ethan-1-one]  1.22 µM
20. Fc1ccc(-c2ncccc2-c2ccc3ncccc3c2)cc1Cl [compound 688, 6-(2-(3-Chloro-4-fluorophenyl)pyridin-3-yl)quinoline]  1.26 µM
21. N#CCOc1cccc(-c2ncccc2-c2ccc3ncnc(N)c3c2)c1 [compound 481, 2-(3-(3-(4-Aminoquinazolin-6-yl)pyridin-2-yl)phenoxy)acetonitrile]  1.28 µM
22. c1cc(-c2ncccc2-c2ccc3ncnc(N4CCOCC4)c3c2)cc(C2CC2)c1 [compound 387, 4-(6-(2-(3-Cyclopropylphenyl)pyridin-3-yl)quinazolin-4-yl)morpholine]  1.28 µM
23. CCOc1cnc(-c2cccc(C)c2)c(-c2ccc3[nH]ncc3c2)c1 [Compound 3, 5-(5-Ethoxy-2-m-tolylpyridin-3-yl)-1H-indazole]  1.3 µM
24. Cc1cc(-c2ncccc2-c2ccc3c(=O)nc[nH]c3c2)ccc1F [compound 348, 7-(2-(4-Fluoro-3-methylphenyl)pyridin-3-yl)quinazolin-4(1H)-one]  1.3 µM
25. Cc1cc(-c2ncc(NCc3cccnc3C)cc2-c2ccc3ncsc3c2)ccc1F [compound 331, 5-(Benzo[d]thiazol-6-yl)-6-(4-fluoro-3-methylphenyl)-N-((2-methylpyridin-3-yl)methyl)pyridin-3-amine]  1.33 µM
26. Cc1cc(-c2ncccc2-c2ccc3c(N)noc3c2)ccc1F [compound 794, 6-(2-(4-Fluoro-3-methylphenyl)pyridin-3-yl)benzo[d]isoxazol-3-amine]  1.8 µM
27. Cc1cccc(-c2ncccc2-c2ccc3ncnc(N4CCOCC4)c3c2)c1 [compound 386, 4-(6-(2-(m-Tolyl)pyridin-3-yl)quinazolin-4-yl)morpholine]  2 µM
28. Fc1cc(F)c(-c2ncccc2-c2ccc3ncccc3c2)cc1F [compound 696, 6-(2-(2,4,5-Trifluorophenyl)pyridin-3-yl)quinoline]  2.11 µM
29. Clc1cccc(-c2ncccc2-c2ccc3ncccc3c2)c1 [compound 699, 6-(2-(3-Chlorophenyl)pyridin-3-yl)quinolone]  2.3 µM
30. Fc1ccccc1-c1ncccc1-c1ccc2ncsc2c1 [compound 657, 6-(2-(2-Fluorophenyl)pyridin-3-yl)benzo[d]thiazole]  3.49 µM
31. Cc1cc(-c2ncccc2-c2ccc3ncc(=O)n(C)c3c2)ccc1F [compound 888, 7-(2-(4-Fluoro-3-methylphenyl)pyridin-3-yl)-1-methylquinoxalin-2(1H)-one]  4.05 µM
32. Fc1ccc(-c2ncccc2-c2ccc3[nH]ncc3c2)cc1C(F)(F)F [Compound 93, 5-(2-(4-Fluoro-3-(trifluoromethyl)phenyl)pyridin-3-yl)-1H-indazole]  4.83 µM
33. Cc1cc(-c2ncc(NC(=O)CCN3CCOCC3)cc2-c2ccc3ncsc3c2)ccc1F [compound 312, N-(5-(Benzo[d]thiazol-6-yl)-6-(4-fluoro-3-methylphenyl)pyridin-3-yl)-3-morpholinopropanamide]  7.54 µM
34. Cc1cc(-c2ncccc2-c2ccc3ncc(C(=O)N4CCOCC4)n3c2)ccc1F [compound 580, (6-(2-(4-Fluoro-3-methylphenyl)pyridin-3-yl)imidazo[1,2-a]pyridin-3-yl)(morpholino)methanone]  8.46 µM
35. [2H]C([2H])([2H])c1cccc(-c2ncccc2-c2ccn3cncc3c2)c1 [compound 604, 7-(2-(3-(Methyl-d3)phenyl)pyridin-3-yl)imidazo[1,5-a]pyridine]  8.52 µM
36. Cc1cc(-c2ncccc2-c2ccc3ncn(CCCN4CCN(C)CC4)c3c2)ccc1F [compound 253, 1-(3-(4-Methylpiperazin-1-yl)propyl)-6-(2-(4-fluoro-3-methylphenyl)pyridin-3-yl)-1H-benzo[d]imidazole]  12.4 µM
37. Cc1cc(-c2ncccc2-c2ccc3nccc(C(N)=O)c3c2)ccc1F [compound 846, 6-(2-(4-Fluoro-3-methylphenyl)pyridin-3-yl)quinoline-4-carboxamide]  14.3 µM
38. FC(F)(F)c1cccc(-c2ncccc2-c2ccc3ncc(N4CCCC4)n3c2)c1 [compound 564, 3-(Pyrrolidin-1-yl)-6-(2-(3-(trifluoromethyl)phenyl)pyridin-3-yl)imidazo[1,2-a]pyridine]  18.4 µM
